What was measured:
HDAC8 = molecular target: T1, HDAC8 (Homo sapiens, UniProt Q9BY41); test: HDAC8 inhibitory activity analysis (in vitro), RFU analysis, HDAC Fluorogenic assay kit; format: biochemical; details: 10 μM; compared with TSA or SAHA
T1 construct: purchased BPS bioscience
T1 sequence (Q9BY41 1-377): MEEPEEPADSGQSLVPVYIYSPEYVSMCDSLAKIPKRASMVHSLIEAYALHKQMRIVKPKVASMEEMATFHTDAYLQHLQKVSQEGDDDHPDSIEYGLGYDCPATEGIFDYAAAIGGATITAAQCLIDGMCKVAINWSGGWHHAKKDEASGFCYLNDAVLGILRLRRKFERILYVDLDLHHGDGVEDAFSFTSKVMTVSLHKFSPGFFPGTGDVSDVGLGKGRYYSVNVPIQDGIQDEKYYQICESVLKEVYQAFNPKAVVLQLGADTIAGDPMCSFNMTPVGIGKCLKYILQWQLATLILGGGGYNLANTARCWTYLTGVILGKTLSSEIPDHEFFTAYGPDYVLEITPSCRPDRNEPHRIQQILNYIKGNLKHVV
Method: The compound of the Example was diluted to 1 mM (1% DMSO concentration) using DMSO to obtain a final concentration of 10 μM, and prepared by diluting 1/10 with assay buffer. In a 96-well black round-bottom plate, 5 μL of the diluted compound of the Example, 5 μL of the diluted HDAC substrate 2A, 5 μL of BSA (1 mg/mL), 5 µL of the HDAC8 enzyme diluted to an appropriate concentration, and 30 μL of assay buffer were added, and the enzyme reaction was performed at 37° C. for 30 minutes. […] Afterwards, 50 μL of 2×HDAC developer was added to each well. After reacting for 15 minutes at room temperature, the fluorescence values at excitation wavelengths of 350-380 nm and emission wavelengths of 440-460 nm were measured using a microplate reader (Synergy Neo).

Liver cancer cells Huh-7 = test: Liver cancer cell growth inhibition, CellTiter-Glo Luminescent Cell Viability Assay; format: cell-based; details: various concentrations; day 1; FIG. 6
Method: In addition, an analysis of liver cancer growth inhibitory activity was performed. Liver cancer cells Huh-7 cells were dispensed in a 96-well plate at 1×10^4 cells/ml, and after 20 hours, PCI34051, Example 27, and Example 35 were added at various concentrations, and cultured for 24 and 48 hours at 37° C. in a 5% CO2 atmosphere. After culturing, 100 l CellTiter-Glo Luminescent Cell Viability Assay reagent was added and the luminescence signal was measured after 0.5-1 hour. The luminescence signal was measured using IVIS [PerkinElmer, (Waltham, USA)].

[1] = system: PC-3 prostate cancer cells; test: Prostate cancer cell growth inhibition, CCK-8 assay; format: cell-based, human; details: various concentrations, FIG. 1
Method: PC-3, a human-derived prostate cancer cell line, was cultured with RPMI1640 (10% fetal bovine serum, 1% Penicillin Streptomycin) culture medium at 37° C., 5% CO2 condition. All cells in the experiment were subcultured when they reached a confluency of approximately 80% to 90%, and only cells that had not passed 20 passages were used.
After culturing, 10 L CCK-8 reagent was added and the absorbance was measured after 1 hour. The absorbance was measured at 450 nm using a microplate reader [BMG Labtech (Offenburg, Germany)].

HDAC1 = HDAC1 (Homo sapiens, UniProt Q13547); test: Selective inhibitory effect, HDAC Fluorogenic assay kit, HDAC1; details: read-out: HDAC1 enzyme activity (%)
Chain of HDAC1 (Q13547 whole entry): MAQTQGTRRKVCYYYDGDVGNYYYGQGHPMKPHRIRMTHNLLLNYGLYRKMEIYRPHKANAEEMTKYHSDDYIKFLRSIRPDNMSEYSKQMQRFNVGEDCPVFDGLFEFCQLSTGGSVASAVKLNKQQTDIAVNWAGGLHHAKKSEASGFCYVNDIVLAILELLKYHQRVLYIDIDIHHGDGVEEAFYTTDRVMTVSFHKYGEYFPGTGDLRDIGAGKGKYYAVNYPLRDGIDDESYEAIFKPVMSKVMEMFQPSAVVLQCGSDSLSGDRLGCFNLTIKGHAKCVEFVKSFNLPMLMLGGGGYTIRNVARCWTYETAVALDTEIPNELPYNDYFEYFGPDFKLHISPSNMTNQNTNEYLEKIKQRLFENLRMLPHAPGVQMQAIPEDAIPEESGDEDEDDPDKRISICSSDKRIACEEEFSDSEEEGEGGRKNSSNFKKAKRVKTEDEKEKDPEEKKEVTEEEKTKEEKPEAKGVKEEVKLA
Method: (§1) For analysis, HDAC substrate 3 was diluted in buffer to a concentration of 200 μM and used in HDAC 1, 2, 3, 6, and 10 assays, HDAC substrate 2A was diluted in buffer to a concentration of 200 μM and used in HDAC 4, 7, 9, and 11 assays, HDAC substrate 2A was diluted in buffer to a concentration of 20 μM and used in HDAC 8 assays. For the HDAC 11 assay, a dedicated buffer included in the kit was used separately, and the same buffer was used for the remaining assays. The compound of the Example was diluted to 1 mM (1% DMSO concentration) using DMSO to obtain a final concentration of 10 μM, and prepared by diluting 1/10 with assay buffer. In a 96-well black round-bottom plate, 5 μL of the diluted compound of the Example, 5 μL of the diluted HDAC substrate, 5 μL of BSA (1 mg/ml), 5 μL of the HDAC enzyme diluted to the appropriate concentration, and 30 μL of assay buffer were added, and the enzyme reaction was performed at 37° C. for 30 minutes. […] Afterwards, 50 μL of 2×HDAC developer was added to each well. After reacting for 15 minutes at room temperature, the fluorescence values at excitation wavelengths of 350-380 nm and emission wavelengths of 440-460 nm were measured using a microplate reader (Synergy Neo).

HDAC2 = HDAC2 (Homo sapiens, UniProt Q92769); test: Selective inhibitory effect, HDAC Fluorogenic assay kit, HDAC2; details: read-out: HDAC2 enzyme activity (%)
Chain of HDAC2 (Q92769 whole entry): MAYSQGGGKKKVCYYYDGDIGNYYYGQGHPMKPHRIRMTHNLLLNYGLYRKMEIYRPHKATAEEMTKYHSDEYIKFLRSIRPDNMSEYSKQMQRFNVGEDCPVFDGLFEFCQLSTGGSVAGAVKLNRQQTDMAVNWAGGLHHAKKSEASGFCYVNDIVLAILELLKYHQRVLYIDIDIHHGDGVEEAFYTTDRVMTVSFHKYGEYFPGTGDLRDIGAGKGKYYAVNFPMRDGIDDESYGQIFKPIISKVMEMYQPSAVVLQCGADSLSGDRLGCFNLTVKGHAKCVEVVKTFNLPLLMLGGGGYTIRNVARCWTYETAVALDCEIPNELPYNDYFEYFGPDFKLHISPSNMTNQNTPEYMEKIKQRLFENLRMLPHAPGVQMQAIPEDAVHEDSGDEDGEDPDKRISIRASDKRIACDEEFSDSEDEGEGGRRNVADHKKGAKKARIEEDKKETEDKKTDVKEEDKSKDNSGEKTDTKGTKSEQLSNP
Method: as §1

HDAC10 = molecular target: T2, HDAC10 (Homo sapiens, UniProt Q969S8); test: Selective inhibitory effect, HDAC Fluorogenic assay kit, HDAC10; details: read-out: HDAC10 enzyme activity (%)
T2 sequence (Q969S8 1-669): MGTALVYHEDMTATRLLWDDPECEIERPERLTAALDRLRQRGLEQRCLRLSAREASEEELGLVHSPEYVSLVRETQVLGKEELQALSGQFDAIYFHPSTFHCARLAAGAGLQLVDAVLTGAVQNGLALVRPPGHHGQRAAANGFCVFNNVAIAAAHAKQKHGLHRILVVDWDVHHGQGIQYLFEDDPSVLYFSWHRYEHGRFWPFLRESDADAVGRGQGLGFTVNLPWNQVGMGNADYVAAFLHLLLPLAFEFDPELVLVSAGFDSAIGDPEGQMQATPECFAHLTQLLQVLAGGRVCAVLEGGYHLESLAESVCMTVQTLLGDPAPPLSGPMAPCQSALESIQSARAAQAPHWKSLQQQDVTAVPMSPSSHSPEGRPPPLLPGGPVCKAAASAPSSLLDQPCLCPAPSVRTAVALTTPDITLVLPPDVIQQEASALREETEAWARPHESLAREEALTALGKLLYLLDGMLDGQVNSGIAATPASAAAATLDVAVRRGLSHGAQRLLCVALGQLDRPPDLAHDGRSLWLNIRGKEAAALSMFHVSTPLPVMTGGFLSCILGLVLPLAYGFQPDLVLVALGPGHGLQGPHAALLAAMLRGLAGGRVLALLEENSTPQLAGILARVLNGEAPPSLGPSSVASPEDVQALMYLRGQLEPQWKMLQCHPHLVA
Method: as §1

HDAC6 = molecular target: T3, HDAC6 (Homo sapiens, UniProt Q9UBN7); test: Selective inhibitory effect, HDAC Fluorogenic assay kit, HDAC6; details: read-out: HDAC6 enzyme activity (%)
T3 sequence (Q9UBN7 1-1215): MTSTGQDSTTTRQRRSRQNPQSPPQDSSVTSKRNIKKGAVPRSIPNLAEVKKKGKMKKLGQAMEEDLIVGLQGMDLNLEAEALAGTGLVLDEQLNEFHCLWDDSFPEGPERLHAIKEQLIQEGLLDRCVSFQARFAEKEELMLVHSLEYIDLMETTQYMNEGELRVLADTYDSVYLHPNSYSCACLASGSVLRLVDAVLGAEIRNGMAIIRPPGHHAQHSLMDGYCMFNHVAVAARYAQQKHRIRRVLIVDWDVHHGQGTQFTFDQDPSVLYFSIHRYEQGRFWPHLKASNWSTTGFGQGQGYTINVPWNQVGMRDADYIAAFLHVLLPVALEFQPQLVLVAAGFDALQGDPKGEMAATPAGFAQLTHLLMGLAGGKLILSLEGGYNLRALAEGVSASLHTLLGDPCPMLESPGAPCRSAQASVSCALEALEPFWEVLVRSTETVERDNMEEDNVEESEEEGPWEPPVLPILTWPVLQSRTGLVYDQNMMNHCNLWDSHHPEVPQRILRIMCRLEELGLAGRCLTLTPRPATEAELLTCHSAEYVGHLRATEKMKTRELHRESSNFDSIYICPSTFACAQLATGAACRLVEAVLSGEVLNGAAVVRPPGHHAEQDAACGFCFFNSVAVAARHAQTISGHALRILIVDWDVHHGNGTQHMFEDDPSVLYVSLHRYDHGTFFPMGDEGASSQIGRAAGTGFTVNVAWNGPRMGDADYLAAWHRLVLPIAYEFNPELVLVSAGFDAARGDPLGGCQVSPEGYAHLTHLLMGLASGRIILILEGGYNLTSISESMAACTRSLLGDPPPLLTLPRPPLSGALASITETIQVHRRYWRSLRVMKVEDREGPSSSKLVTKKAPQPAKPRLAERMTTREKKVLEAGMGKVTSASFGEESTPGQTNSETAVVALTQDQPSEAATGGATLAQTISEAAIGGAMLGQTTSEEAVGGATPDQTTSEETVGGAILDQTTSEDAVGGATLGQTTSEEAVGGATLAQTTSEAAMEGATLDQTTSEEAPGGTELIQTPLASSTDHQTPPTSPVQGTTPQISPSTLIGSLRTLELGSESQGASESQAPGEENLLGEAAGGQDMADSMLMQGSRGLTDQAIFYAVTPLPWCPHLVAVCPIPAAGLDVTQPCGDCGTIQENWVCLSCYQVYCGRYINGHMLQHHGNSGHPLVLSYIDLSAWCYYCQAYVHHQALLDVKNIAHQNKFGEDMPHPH
Method: as §1

Q: For `Cc1cc2nc(C(=O)Nc3ccc(C(=O)NO)cc3)c(=O)n(C[C@H](O)[C@H](O)[C@H](O)CO)c2cc1C` [Example 48, N-(4-(hydroxycarbamoyl)phenyl)-6,7-dimethyl-3-oxo-4-((2S,3S,4R)-2,3,4,5-tetrahydroxypentyl)-3,4-dihydroquinoxaline-2-carboxamide], which “inhibitory activity against HDAC8 (in words)” value (from here on “inhibitory activity”) (HDAC8) is on record?
A: inhibitory activity similar to TSA or SAHA

Q: With `Cc1cc2nc(C(=O)Nc3nc4c(F)cccc4[nH]3)c(=O)n(C[C@H](O)[C@H](O)[C@H](O)CO)c2cc1C` [Example 35, N-(4-fluoro-1H-benzo[d]imidazol-2-yl)-6,7-dimethyl-3-oxo-4-((2S,3S,4R)-2,3,4,5-tetrahydroxypentyl)-3,4-dihydroquinoxaline-2-carboxamide] as the compound, how does the “Huh-7 cell viability (in words)” value (Liver cancer cells Huh-7) read?
A: concentration-dependent inhibition of cancer cell viability

Q: And the “PC-3 cell viability after 24 hours (in words)” value ([1]; 24 hours)?
A: concentration-dependent inhibition of cancer cell viability

Q: What about the “PC-3 cell viability after 48 hours (in words)” value ([1]; 48 hours) of the same compound?
A: cell viability was restored

Q: What about the “inhibitory activity” value (HDAC8) of the same compound?
A: inhibitory activity similar to TSA or SAHA

Q: Which remaining activity at 10 µM (HDAC1) does the source give for `CC(/C=C/C(=O)NO)=C\[C@@H](C)C(=O)c1ccc(N(C)C)cc1` [TSA, Trichostatin A, reference compound] here?
A: 1.22%

Q: And the remaining activity at 10 µM (HDAC2)?
A: 0.7%

Q: What about the remaining activity at 10 µM (HDAC10) of the same compound?
A: 1.21%

Q: And the remaining activity at 10 µM (HDAC6)?
A: 1.11%

Q: How did the “Huh-7 cell viability (in words)” value (Liver cancer cells Huh-7) turn out when `COc1ccc(Cn2ccc3ccc(C(=O)NO)cc32)cc1` [PCI-34051, N-hydroxy-1-(4-methoxybenzyl)-1H-indole-6-carboxamide, reference compound] was run?
A: concentration-dependent inhibition of cancer cell viability

Q: `Cc1cc2nc(C(=O)Nc3cc(C(=O)NO)ccc3C)c(=O)n(C[C@H](O)[C@H](O)[C@H](O)CO)c2cc1C` [Example 51, N-(5-(hydroxycarbamoyl)-2-methylphenyl)-6,7-dimethyl-3-oxo-4-((2S,3S,4R)-2,3,4,5-tetrahydroxypentyl)-3,4-dihydroquinoxaline-2-carboxamide] was tested. Which “inhibitory activity” value (HDAC8) did it give?
A: inhibitory activity similar to TSA or SAHA

Q: `Cc1cc2nc(C(=O)NCc3ccc4[nH]cnc4c3)c(=O)n(C[C@H](O)[C@H](O)[C@H](O)CO)c2cc1C` [Example 34, N-((1H-benzo[d]imidazol-5-yl)methyl)-6,7-dimethyl-3-oxo-4-((2S,3S,4R)-2,3,4,5-tetrahydroxypentyl)-3,4-dihydroquinoxaline-2-carboxamide] was tested. Which “inhibitory activity” value (HDAC8) did it give?
A: inhibitory activity similar to TSA or SAHA

Q: How did the “inhibitory activity” value (HDAC8) turn out when `Cc1cc2nc(C(=O)NCc3ccc(CC(=O)NO)cc3)c(=O)n(C[C@H](O)[C@H](O)[C@H](O)CO)c2cc1C` [Example 49, N-(4-(2-(hydroxyamino)-2-oxoethyl)benzyl)-6,7-dimethyl-3-oxo-4-((2S,3S,4R)-2,3,4,5-tetrahydroxypentyl)-3,4-dihydroquinoxaline-2-carboxamide] was run?
A: inhibitory activity similar to TSA or SAHA

Q: `Cc1cc2nc(C(=O)Nc3cc(-c4ccc(Br)cc4)no3)c(=O)n(C[C@H](O)[C@H](O)[C@H](O)CO)c2cc1C` [Example 10, N-(3-(4-bromophenyl)isoxazol-5-yl)-6,7-dimethyl-3-oxo-4-((2S,3S,4R)-2,3,4,5-tetrahydroxypentyl)-3,4-dihydroquinoxaline-2-carboxamide] was tested. Which “inhibitory activity” value (HDAC8) did it give?
A: inhibitory activity similar to TSA or SAHA

From patent US20250214947A1, “3,4-DIHYDROQUINOXALINE-2-CARBOXIMIDE DERIVATIVE COMPOUND AND PHARMACEUTICAL COMPOSITION COMPRISING SAME FOR PREVENTING OR TREATING CANCER DISEASE” (Cureverse Incorporated, priority 2022, published 2025)
